{
  "source": "patent US9913478B2",
  "about": "“Organic and environmentally “green” biocide compositions and applications” (Arrowhead Center, Inc., priority 2013, dated 2018)",
  "test_system": "X. campestris Provencia strain",
  "test": "growth (CFU) after 18 hours of incubation, oil compared to carvacrol (FIG. 2)",
  "type": "cell-based, Xanthomonas campestris",
  "settings": "0.01 mg/ml, oil vs carvacrol p-value=0.009",
  "experimental": "The bars in the graph indicate the bacterial number (CFU) that was reached after 18 hours of incubation. […] Thus, a composition of biocide comprising oregano oil exerts synergistic effects, due, in part, to the multiple antimicrobial biochemicals that make up the oil (see FIG. 1).",
  "data": [
    {"compound": "Cc1ccc(C(C)C)cc1O", "note": "[Carvacrol, carvacrol]", "values": [
      {"measurement": "inhibition of growth, bacterial number (CFU)", "value": "not as effective as the essential oil"}
    ]}
  ]
}
